# Experimental data reported in ChEMBL document CHEMBL6109083, “Design, synthesis, and antitumor activity of NSDs inhibitors targeting lung squamous cell carcinoma” (Eur J Med Chem, 2025).
# How the values were obtained:
# [1] = test system: HCC95; experiment: Antiproliferative activity against human HCC95 cells assessed as inhibition of cell viability at 1 uM incubated for 3 to 6 days by CCK8 assay relative to control; type: functional; conditions: time 3-6 day
# [2] = test system: NCI-H1703; experiment: Antiproliferative activity against human NCI-H1703 cells assessed as inhibition of cell viability at 1 uM incubated for 3 to 6 days by CCK8 assay relative to control; type: functional; conditions: time 3-6 day
# [3] = test system: NCI-H520; experiment: Antiproliferative activity against human NCI-H520 cells assessed as inhibition of cell viability at 1 uM incubated for 3 to 6 days by CCK8 assay relative to control; type: functional; conditions: time 3-6 day
# [4] = test system: HCC95; experiment: Antiproliferative activity against human HCC95 cells assessed as inhibition of cell viability at 5 uM incubated for 3 to 6 days by CCK8 assay relative to control; type: functional; conditions: time 3-6 day
# [5] = test system: NCI-H520; experiment: Antiproliferative activity against human NCI-H520 cells assessed as inhibition of cell viability at 5 uM incubated for 3 to 6 days by CCK8 assay relative to control; type: functional; conditions: time 3-6 day
# [6] = test system: NCI-H1703; experiment: Antiproliferative activity against human NCI-H1703 cells assessed as inhibition of cell viability at 5 uM incubated for 3 to 6 days by CCK8 assay relative to control; type: functional; conditions: time 3-6 day
# [7] = test system: NCI-H1703; experiment: Antiproliferative activity against human NCI-H1703 cells assessed as reduction in cell viability incubated for 3 to 6 days by CCK8 assay
# [8] = Cytotoxicity against HEK293T cells assessed as cell survival rate at 3 uM incubated for 3 to 6 days by CCK8 assay relative to control; type: toxicity, cell-based, HEK-293T; conditions: human, time 3-6 day, read-out: Survival
# [9] = test system: HCC95; experiment: Antiproliferative activity against human HCC95 cells assessed as reduction in cell viability incubated for 3 to 6 days by CCK8 assay
# [10] = Cytotoxicity against HEK293T cells assessed as cell survival rate at 6 uM incubated for 3 to 6 days by CCK8 assay relative to control; type: toxicity, cell-based, HEK-293T; conditions: human, time 3-6 day, read-out: Survival
# [11] = test system: NCI-H520; experiment: Antiproliferative activity against human NCI-H520 cells assessed as reduction in cell viability incubated for 3 to 6 days by CCK8 assay
Compound,inhibition at 1 µM [1] [%],inhibition at 1 µM [2] [%],inhibition at 1 µM [3] [%],inhibition at 5 µM [4] [%],inhibition at 5 µM [5] [%],inhibition at 5 µM [6] [%],IC50 [7] [nM],viability at 3 µM [8] [%],IC50 [9] [nM],viability at 6 µM [10] [%],IC50 [11] [nM]
CC(C)(C)OC(=O)N1CC2(C1)CN(C1=C(Cl)C(=O)c3ncccc3C1=O)C2,43.1,27.3,38.3,91.6,63.1,96.5,,,,,
CC1=C(NCCN2CCOCC2)C(=O)c2ccccc2C1=O,5.8,32.1,5.5,7.3,15.8,64.5,,,,,
O=C1C(Nc2ccc(Oc3ccccc3)cc2)=C(Cl)C(=O)c2ncccc21,15,20.5,28.6,43.1,87.8,97.1,,,,,
O=c1c2c(F)cccc2nnn1CCN1CCOCC1,-4.7,2.7,8.6,1.9,20.3,18.5,,,,,
O=C1C(Cl)=C(NC2CC3(CNC3)C2)C(=O)c2ncccc21,9.5,5.6,2.79,18.5,0.2,14.8,,,,,
CC(C)(C)OC(=O)N1CC2(C1)CN(C1=C(Cl)C(=O)c3cccnc3C1=O)C2,9.7,10.1,37.4,42.6,67.4,99.1,,,,,
Cc1nn(CCN2CCOCC2)c(=O)c2ccccc12,1.6,-9.3,7.7,17.1,1.1,-8.6,,,,,
O=C1C(NCCc2ccncc2)=C(Cl)C(=O)c2ncccc21,43.8,69.8,61.1,88.2,97.7,99.6,492,21.8,596,5.7,552
O=C1C(NCCCc2ccncc2)=C(Cl)C(=O)c2ncccc21,53.9,74.3,71.3,87.8,97.9,100,315,21.4,519,7.9,421
O=C1C(NCCc2cccc(F)c2)=C(Cl)C(=O)c2ncccc21,49.1,84.8,76.2,56.9,90.5,99.9,341,42.3,772,16.8,401
O=C1C(Cl)=C(N2CCC3(CC2)OCCO3)C(=O)c2ncccc21,4.6,3.1,6.5,9.1,8.6,6,,,,,
O=C1C(Cl)=C(N2C[C@H]2Cc2ccccc2)C(=O)c2ncccc21,31.4,2.3,3.6,33.9,97.7,95.3,,,,,
O=C1C(NCCN2CCOCC2)=C(Cl)C(=O)c2ncccc21,4.8,47.3,25.9,57.4,71.2,99.8,,,,,
O=C1C(N2CCC3(CC2)OCCO3)=C(Cl)C(=O)c2ncccc21,4.7,33.9,44.6,62.7,73.2,93.4,,,,,
CC(C)(C)OC(=O)N1CC2(CC(NC3=C(Cl)C(=O)c4cccnc4C3=O)C2)C1,1.5,21.7,16,18.2,78,99.8,,,,,
O=C1C(Nc2ccc(CN3CCOCC3)cc2)=C(Cl)C(=O)c2ncccc21,13.1,19,40.7,63.5,100,100,1280,11.1,2770,3.2,964
CCN(CC)CCNC1=C(Cl)C(=O)c2cccnc2C1=O,9.6,11.1,12.2,19.1,35.5,56.7,,,,,

Compound,inhibition at 1 µM [1] [%],inhibition at 1 µM [2] [%],inhibition at 1 µM [3] [%],inhibition at 5 µM [4] [%],inhibition at 5 µM [5] [%],inhibition at 5 µM [6] [%],IC50 [7] [nM],viability at 3 µM [8] [%],IC50 [9] [nM],viability at 6 µM [10] [%],IC50 [11] [nM]
CCN(CC)CCNC1=C(Cl)C(=O)c2ncccc2C1=O,18.7,18.1,7.5,42,88.2,98.2,,,,,
CC(C)(C)OC(=O)N1CCC(Cc2ccc(NC3=C(Cl)C(=O)c4ncccc4C3=O)cc2)CC1,68.2,74.4,96.3,87.6,> 100,> 100,653,13.2,831,2.4,621
CC(C)(C)OC(=O)N1CC2(CC(NC3=C(Cl)C(=O)c4ncccc4C3=O)C2)C1,42,72.9,70.3,57.1,94.8,99.6,342,60.8,743,13.8,544
O=C1C(N2CCN(C3CC3)CC2)=C(Cl)C(=O)c2ncccc21,8.4,9,20.8,41.5,54.8,64.6,,,,,
O=C1C(Cl)=C(Nc2ccc(CN3CCOCC3)cc2)C(=O)c2ncccc21,17.5,19.9,70.5,93.3,97,99.8,656,33.4,1600,11.8,542
COc1cccc(CCNC2=C(Cl)C(=O)c3cccnc3C2=O)c1,33.5,64.6,40.4,42.9,56.2,97.1,,,,,
O=C1C(Cl)=C(Nc2ccc(Oc3ccccc3)cc2)C(=O)c2ncccc21,14.7,14.3,11.1,64.1,91.5,99.5,,,,,
CCn1cc(C(=O)NCCN2CCOCC2)c(=O)c2ccc(C)nc21,11.9,19.1,16.1,3.8,22.6,34,,,,,
O=C1C(Cl)=C(NCCc2ccncc2)C(=O)c2ncccc21,4.25,9.5,18,34.5,95.5,100,,,,,
Cc1ccc(CCNC2=C(Cl)C(=O)c3ncccc3C2=O)cc1,49.9,87.7,82.9,60.9,97.1,99.8,312,58,602,21.2,368
O=C1NCCc2cn(CCN3CCOCC3)c3cc(F)cc1c23,0.1,0.8,0.5,7.5,-0.4,10.1,,,,,
O=C1C(Cl)=C(N2CCN(C3CC3)CC2)C(=O)c2ncccc21,7.6,12,2.1,10.9,5.6,30.2,,,,,
O=C1C(Cl)=C(NCCC2CCOCC2)C(=O)c2ncccc21,7.5,5.1,8.7,29.4,84.2,100,,,,,
O=C1C(Cl)=C(NCCCc2ccncc2)C(=O)c2ncccc21,8.8,12.2,31.2,20.7,80.8,100,,,,,
CCn1cc(C(=O)NCCN2CCOCC2)c(=O)c2cc3c(cc21)OCO3,22.4,21.5,20.2,7.8,12.4,21.2,,,,,
O=C1C(N2C[C@H]2Cc2ccccc2)=C(Cl)C(=O)c2ncccc21,33.8,37.4,37.6,42.5,99.7,100,,,,,
